# Data as given in US10683293B2, “Optionally fused heterocyclyl-substituted derivatives of pyrimidine useful for the treatment of inflammatory, metabolic, oncologic and autoimmune diseases” (NUEVOLUTION A/S, priority 2014, dated 2020).
# Experiments:
# [1] = biological target: T1, human RORγt (Ligand Binding Domain) (Homo sapiens, UniProt P51449); assay: Fluorescence Polarization (FP) Assay; conditions: 100 nM human RORγt LBD, 25 nM TAMRA probe, values are activity range bounds
# T1 construct: purchased Crelux (Planegg, Germany) batch no PC5032-1
# T1 sequence (P51449 269-508 limits assumed): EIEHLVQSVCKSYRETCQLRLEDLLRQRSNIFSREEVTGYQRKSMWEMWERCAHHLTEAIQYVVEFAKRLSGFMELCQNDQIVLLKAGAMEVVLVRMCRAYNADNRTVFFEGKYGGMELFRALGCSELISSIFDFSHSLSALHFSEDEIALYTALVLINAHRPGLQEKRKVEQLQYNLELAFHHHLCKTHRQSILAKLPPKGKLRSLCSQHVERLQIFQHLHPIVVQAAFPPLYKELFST
# In short: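 In vitro fluorescence polarization binding assay on the RORγt ligand-binding pocket. A TAMRA-labelled RORγt ligand probe (MW 910 g/mol) was used, with DMSO as negative control.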
# [2] = biological target: T2, ligand binding domain of human RORγ (Homo sapiens, UniProt P51449); assay: RORγ Reporter Assay (Gal4); type: cell-based; conditions: for inhibition at 1 µM: HEK-293T, read-out: Gal4 activity range @ 1 μM (% inhibition); for Gal4 activity range @ 0.1 μM (% inhibition): RORγ Reporter Assay (Gal4), HEK293t reporter cells, compound at 0.1 μM, values are activity range bounds
# T2 construct: host or cells: HEK293t
# T2 sequence (P51449 269-508 limits assumed): T1 sequence (P51449 269-508 limits assumed)
# In short: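 HEK293t cells expressing Gal4 DBD–human RORγ LBD hybrid with Gal4-UAS firefly luciferase reporter; compounds at final 1,000 nM and 100 nM (0.1% DMSO), triplicate, medium with 10% charcoal-stripped FBS, 24 h at 37 °C. Luminescence read; percent reduction of RORγ activity calculated versus vehicle-only wells.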
# [3] = 1 μM test compound, HEK293t RORγ reporter cells, 24 hour
Structure (SMILES),IC50 [1] [nM],"inhibition at 1 µM [2, 3] [%]",Gal4 activity range @ 0.1 μM (% inhibition) [2] [% inhibition],"Gal4 activity range @ 1 μM (% inhibition) ([2]; 1 μM test compound, HEK293t RORγ reporter cells, 24 hour, 1 µM) [%]"
"N#Cc1ccc(CN(c2ncnc(NCc3ccc(CC(N)=O)cc3)c2F)C2CC2)cc1 [Example A64, 2-[4-[[[6-[(4-cyanophenyl)methyl-cyclopropyl-amino]-5-fluoro-pyrimidin-4-yl]amino]methyl]phenyl]acetamide]",< 500,> 80,>50,–
"NC(=O)Cc1ccc(CNc2ncnc(N(Cc3c(F)cccc3Cl)C3CC3)c2F)cc1 [Example A65, 2-[4-[[[6-[(2-chloro-6-fluoro-phenyl)methyl-cyclopropyl-amino]-5-fluoro-pyrimidin-4-yl]amino]methyl]phenyl]acetamide]",< 500,> 50,>20,–
"NC(=O)Cc1ccc(CNc2ncnc(N(Cc3ccccc3Cl)C3CC3)c2F)cc1 [Example A66, 2-[4-[[[6-[(2-chlorophenyl)methyl-cyclopropyl-amino]-5-fluoro-pyrimidin-4-yl]amino]methyl]phenyl]acetamide]",< 500,> 50,>20,–
"Cc1cccc(Cl)c1CN(c1ncnc(NCc2ccc(CC(N)=O)cc2)c1F)C1CC1 [Example A67, 2-[4-[[[6-[(2-chloro-6-methyl-phenyl)methyl-cyclopropyl-amino]-5-fluoro-pyrimidin-4-yl]amino]methyl]phenyl]acetamide]",< 500,> 50,>20,–
"CCCn1nc(C)cc1CN(C)c1ncnc(NCc2ccc(CC(N)=O)cc2)c1F [Example A68, 2-[4-[[[5-fluoro-6-[methyl-[(5-methyl-2-propyl-pyrazol-3-yl)methyl]amino]pyrimidin-4-yl]amino]methyl]phenyl]acetamide]",< 500,–,>0,>50
"CC(c1ccc(C(F)(F)F)cc1)N(c1ncnc(NCC2CCN(S(C)(=O)=O)CC2)c1F)C1CC1 (stereo not shown) [Example A73, N4-cyclopropyl-5-fluoro-N6-[(1-methylsulfonyl-4-piperidyl)methyl]-N4-[1-[4-(trifluoromethyl)phenyl]ethyl] pyrimidine-4,6-diamine]",< 500,> 80,>80,–
"CC(c1ccc(C(F)(F)F)cc1)N(c1ncnc(NCc2ccc(NS(=O)(=O)C(F)(F)F)cc2)c1F)C1CC1 (stereo not shown) [Example A74, N-[4-[[[6-[cyclopropyl-[1-[4-(trifluoromethyl)phenyl]ethyl]amino]-5-fluoro-pyrimidin-4-yl]amino]methyl]phenyl]-1,1,1-trifluoro-methanesulfonamide]",< 500,> 50,>0,–
"FCC1(CNc2ncnc(N(Cc3ccc(C(F)(F)F)cc3)C3CC3)c2F)CCOCC1 [Example A75, N4-cyclopropyl-5-fluoro-N6-[[4-(fluoromethyl)tetrahydropyran-4-yl]methyl]-N4-[[4-(trifluoromethyl)phenyl]methyl] pyrimidine-4,6-diamine]",< 500,> 80,>80,–
"C[S+]([O-])c1ccc(CNc2ncnc(N(Cc3ccc(C(F)(F)F)cc3)C3CC3)c2F)cc1 (stereo not shown) [Example A76, N4-cyclopropyl-5-fluoro-N6-[(4-methylsulfinylphenyl)methyl]-N4-[[4-(trifluoromethyl)phenyl]methyl] pyrimidine-4,6-diamine]",< 500,> 80,>80,–
"CN(c1ncnc(NCc2ccc(CC(N)=O)cc2)c1F)C1(c2ccc(C(F)(F)F)cc2)CC1 [Example A81, 2-[4-[[[5-fluoro-6-[methyl-[1-[4-(trifluoromethyl)phenyl]cyclopropyl]amino]pyrimidin-4-yl]amino]methyl]phenyl]acetamide]",< 500,> 80,>50,–

# Further lines, results first:
IC50 [1] [nM],"inhibition at 1 µM [2, 3] [%]",Gal4 activity range @ 0.1 μM (% inhibition) [2] [% inhibition],"Gal4 activity range @ 1 μM (% inhibition) ([2]; 1 μM test compound, HEK293t RORγ reporter cells, 24 hour, 1 µM) [%]",Structure (SMILES)
< 500,> 50,>20,–,"NC(=O)Cc1ccc(CNc2ncnc(N(Cc3c(Cl)cccc3Cl)C3CC3)c2F)cc1 [Example A77, 2-[4-[[[6-[cyclopropyl-[(2,6-dichlorophenyl)methyl]amino]-5-fluoro-pyrimidin-4-yl]amino]methyl]phenyl]acetamide]"
< 500,> 80,>50,–,"NC(=O)Cc1ccc(CNc2ncnc(N(Cc3ccc(C(F)(F)F)cc3)C3CC3)c2F)cn1 [Example A78, 2-[5-[[[6-[cyclopropyl-[[4-(trifluoromethyl)phenyl]methyl]amino]-5-fluoro-pyrimidin-4-yl]amino]methyl]-2-pyridyl]acetamide]"
< 1000,> 20,–,–,"O=C(O)CC1(CNc2ncnc(N(Cc3ccc(C(F)(F)F)cc3)C3CC3)c2F)CCOCC1 [Example A79, 2-[4-[[[6-[cyclopropyl-[[4-(trifluoromethyl)phenyl]methyl]amino]-5-fluoro-pyrimidin-4-yl]amino]methyl]tetrahydropyran-4-yl]acetic acid]"
< 500,> 80,>20,–,"CNC(=O)CC1(CNc2ncnc(N(Cc3ccc(C(F)(F)F)cc3)C3CC3)c2F)CCOCC1 [Example A80, 2-[4-[[[6-[cyclopropyl-[[4-(trifluoromethyl)phenyl]methyl]amino]-5-fluoro-pyrimidin-4-yl]amino]methyl]tetrahydropyran-4-yl]-N-methyl-acetamide]"
< 1000,> 80,>20,–,"CC1(c2ccc(CNc3ncnc(N(Cc4ccc(C(F)(F)F)cc4)C4CC4)c3F)cc2)NC(=O)NC1=O (stereo not shown) [Example A82, 5-[4-[[[6-[cyclopropyl-[[4-(trifluoromethyl)phenyl]methyl]amino]-5-fluoro-pyrimidin-4-yl]amino]methyl]phenyl]-5-methyl-imidazolidine-2,4-dione]"
< 500,> 80,>50,–,"NC(=O)Cc1ccc(CNc2ncnc(N(Cc3ccc(C(F)(F)F)nc3)C3CC3)c2F)cc1 [Example A83, 2-[4-[[[6-[cyclopropyl-[[6-(trifluoromethyl)-3-pyridyl]methyl]amino]-5-fluoro-pyrimidin-4-yl]amino]methyl]phenyl]acetamide]"
< 500,> 80,>50,–,"NC(=O)Cc1ccc(CNc2ncnc(N(Cc3ccc(C(F)(F)F)cn3)C3CC3)c2F)cc1 [Example A85, 2-[4-[[[6-[cyclopropyl-[[5-(trifluoromethyl)-2-pyridyl]methyl]amino]-5-fluoro-pyrimidin-4-yl]amino]methyl]phenyl]acetamide]"
< 500,> 50,>0,–,"Fc1c(NCc2ccc(Cc3nnn[nH]3)cc2)ncnc1N(Cc1ccc(-n2cccn2)cc1)C1CC1 [Example A88, N4-cyclopropyl-5-fluoro-N4-[(4-pyrazol-1-ylphenyl)methyl]-N6-[[4-(1H-tetrazol-5-ylmethyl)phenyl]methyl]pyrimidine-4,6-diamine]"
< 500,> 80,>80,–,"CS(=O)(=O)c1ccc(CNc2ncnc(N(Cc3ccc(C(F)(F)F)cc3)C3CC3)c2F)cn1 [Example A89, N6-cyclopropyl-5-fluoro-N4-[(6-methylsulfonyl-3-pyridyl)methyl]-N6-[[4-(trifluoromethyl)phenyl]methyl] pyrimidine-4,6-diamine]"
< 500,> 0,–,–,"CC(C)n1nc(C2CC2)cc1CN(c1ncnc(NCc2ccc(CC(N)=O)cc2)c1F)C1CC1 [Example A90, 2-[4-[[[6-[cyclopropyl-[(5-cyclopropyl-2-isopropyl-pyrazol-3-yl)methyl]amino]-5-fluoro-pyrimidin-4-yl]amino]methyl]phenyl]acetamide]"
< 500,> 80,>80,–,"O=S(=O)(Nc1ccc(CNc2ncnc(N(Cc3ccc(C(F)(F)F)cc3)C3CC3)c2F)cc1)C(F)F [Example A91, N-[4-[[[6-[cyclopropyl-[[4-(trifluoromethyl)phenyl]methyl]amino]-5-fluoro-pyrimidin-4-yl]amino]methyl]phenyl]-1,1-difluoro-methanesulfonamide]"
< 1000,> 80,>20,–,"NC(=O)CC1CC(CNc2ncnc(N(Cc3ccc(C(F)(F)F)cc3)C3CC3)c2F)C1 (stereo not shown) [Example A95, 2-[3-[[[6-[cyclopropyl-[[4-(trifluoromethyl)phenyl]methyl]amino]-5-fluoro-pyrimidin-4-yl]amino]methyl]cyclobutyl] acetamide]"
